Test results reported in article PMC9037111, “Structure-based design, synthesis, and biological evaluation of novel piperine–resveratrol hybrids as antiproliferative agents targeting SIRT-2” (RSC Advances, 2021).
Like-named read-outs stand apart in the source and are kept apart here.

Legend:
Assay in all cases: cells
Parameters in all cases: species or system NCI-60 human tumour cell lines; NCI-60 one-dose screen at 10 uM, percent growth inhibition versus untreated control cells
MDA-MB-435 = settings: Homo sapiens, MDA-MB-435, growth inhibition, one dose
M14 = settings: Homo sapiens, M14, growth inhibition, one dose
UACC-62 = settings: Homo sapiens, UACC-62, growth inhibition, one dose
RPMI-8226 = settings: Homo sapiens, RPMI-8226, growth inhibition, one dose
HCT-15 = settings: Homo sapiens, HCT-15, growth inhibition, one dose
LOX IMVI = settings: Homo sapiens, LOX IMVI, growth inhibition, one dose
MCF7 = settings: Homo sapiens, MCF7, growth inhibition, one dose
NCI-H322M = settings: Homo sapiens, NCI-H322M, growth inhibition, one dose
CAKI-1 = settings: Homo sapiens, CAKI-1, growth inhibition, one dose
MDA-MB-231/ATCC = settings: Homo sapiens, MDA-MB-231, growth inhibition, one dose
A549/ATCC = settings: Homo sapiens, A549, growth inhibition, one dose
EKVX = settings: Homo sapiens, EKVX, growth inhibition, one dose
HS 578 T = settings: Homo sapiens, Hs-578T, growth inhibition, one dose
SK-MEL-2 = settings: Homo sapiens, SK-MEL-2, growth inhibition, one dose
UACC-257 = settings: Homo sapiens, UACC-257, growth inhibition, one dose
786-0 = settings: Homo sapiens, 786-0, growth inhibition, one dose
OVCAR-3 = settings: Homo sapiens, OVCAR-3, growth inhibition, one dose
[1] = read-out: Growth% inhibition / 5a
[2] = read-out: Growth% inhibition / 5e
[3] = read-out: Growth% inhibition / 5d
[4] = read-out: Growth% inhibition / 5b
[5] = read-out: Growth% inhibition / 5h

Structure (SMILES): O=C(/C=C/C=C/c1ccc2c(c1)OCO2)NN=Cc1ccc(O)cc1 [5a, (2E,4E)-5-(Benzo[d][1,3]dioxol-5-yl)-N′-((E,Z)-4-hydroxybenzylidene)penta-2,4-dienehydrazide]
- inhibition at 10 µM (MDA-MB-435; [1]): 73%
- inhibition at 10 µM (M14; [1]): 17.1%
- inhibition at 10 µM (UACC-62; [1]): 28.5%
- inhibition at 10 µM (RPMI-8226; [1]): 16.9%
- inhibition at 10 µM (HCT-15; [1]): 39.7%
- inhibition at 10 µM (LOX IMVI; [1]): 38.5%
- inhibition at 10 µM (MCF7; [1]): 28.8%
- inhibition at 10 µM (NCI-H322M; [1]): 18.5%
- inhibition at 10 µM (CAKI-1; [1]): 25.1%
- inhibition at 10 µM (MDA-MB-231/ATCC; [1]): 17.2%

Structure (SMILES): CCN(CC)c1ccc(/C=N/NC(=O)/C=C/C=C/c2ccc3c(c2)OCO3)c(O)c1 [5e, (2E,4E)-5-(Benzo[d][1,3]dioxol-5-yl)-N′-((E)-4-(diethylamino)-2-hydroxybenzylidene)penta-2,4-dienehydrazide]
- inhibition at 10 µM (MDA-MB-435; [2]): 51.1%
- inhibition at 10 µM (M14; [2]): 63.6%
- inhibition at 10 µM (A549/ATCC; [2]): 46.7%
- inhibition at 10 µM (EKVX; [2]): 47.8%
- inhibition at 10 µM (UACC-62; [2]): 70.9%
- inhibition at 10 µM (RPMI-8226; [2]): 46.4%
- inhibition at 10 µM (HCT-15; [2]): 78.7%
- inhibition at 10 µM (LOX IMVI; [2]): 81.8%
- inhibition at 10 µM (HS 578 T; [2]): 31.9%
- inhibition at 10 µM (MCF7; [2]): 80.5%
- inhibition at 10 µM (SK-MEL-2; [2]): 34.3%
- inhibition at 10 µM (NCI-H322M; [2]): 66.8%
- inhibition at 10 µM (UACC-257; [2]): 75.8%
- inhibition at 10 µM (786-0; [2]): 52.8%
- inhibition at 10 µM (CAKI-1; [2]): 70.7%
- inhibition at 10 µM (MDA-MB-231/ATCC; [2]): 56.8%
- inhibition at 10 µM (OVCAR-3; [2]): 95.1%

Structure (SMILES): CN(C)c1ccc(C=NNC(=O)/C=C/C=C/c2ccc3c(c2)OCO3)cc1 (mixture of isomers) [5d, (2E,4E)-5-(Benzo[d][1,3]dioxol-5-yl)-N′-((E/Z)-4-(dimethylamino)-benzylidene)penta-2,4-dienehydrazide]
- inhibition at 10 µM (MDA-MB-435; [3]): 70.1%
- inhibition at 10 µM (M14; [3]): 22.2%
- inhibition at 10 µM (UACC-62; [3]): 16.1%
- inhibition at 10 µM (HCT-15; [3]): 24.2%
- inhibition at 10 µM (LOX IMVI; [3]): 11.1%
- inhibition at 10 µM (MCF7; [3]): 43.6%
- inhibition at 10 µM (CAKI-1; [3]): 24.6%

Structure (SMILES): O=C(/C=C/C=C/c1ccc2c(c1)OCO2)N/N=C/c1ccc(O)cc1O [5b, (2E,4E)-5-(Benzo[d][1,3]dioxol-5-yl)-N′-((E)-2,4-dihydroxybenzylidene)penta-2,4-dienehydrazide]
- inhibition at 10 µM (MDA-MB-435; [4]): 67.4%
- inhibition at 10 µM (M14; [4]): 69.7%
- inhibition at 10 µM (A549/ATCC; [4]): 63.9%
- inhibition at 10 µM (EKVX; [4]): 79.8%
- inhibition at 10 µM (UACC-62; [4]): 85.7%
- inhibition at 10 µM (RPMI-8226; [4]): 52.3%
- inhibition at 10 µM (HCT-15; [4]): 83%
- inhibition at 10 µM (LOX IMVI; [4]): 90.3%
- inhibition at 10 µM (HS 578 T; [4]): 29.8%
- inhibition at 10 µM (MCF7; [4]): 85.9%
- inhibition at 10 µM (SK-MEL-2; [4]): 47.2%
- inhibition at 10 µM (NCI-H322M; [4]): 82.2%
- inhibition at 10 µM (UACC-257; [4]): 71.5%
- inhibition at 10 µM (786-0; [4]): 71%
- inhibition at 10 µM (CAKI-1; [4]): 90.3%
- inhibition at 10 µM (MDA-MB-231/ATCC; [4]): 65.6%
- inhibition at 10 µM (OVCAR-3; [4]): 90.3%

Structure (SMILES): C/C(=N\NC(=O)/C=C/C=C/c1ccc2c(c1)OCO2)c1ccc(Br)cc1 [5h, (2E,4E)-5-(Benzo[d][1,3]dioxol-5-yl)-N′-((E)-1-(4-bromophenyl)ethylidene)penta-2,4-dienehydrazide]
- inhibition at 10 µM (MDA-MB-435; [5]): 13.6%
- inhibition at 10 µM (M14; [5]): 26.7%
- inhibition at 10 µM (A549/ATCC; [5]): 12.5%
- inhibition at 10 µM (EKVX; [5]): 25%
- inhibition at 10 µM (UACC-62; [5]): 28.5%
- inhibition at 10 µM (RPMI-8226; [5]): 19.4%
- inhibition at 10 µM (HCT-15; [5]): 36.3%
- inhibition at 10 µM (LOX IMVI; [5]): 38.3%
- inhibition at 10 µM (HS 578 T; [5]): 86.5%
- inhibition at 10 µM (MCF7; [5]): 38.7%
- inhibition at 10 µM (SK-MEL-2; [5]): 11%
- inhibition at 10 µM (NCI-H322M; [5]): 36.5%
- inhibition at 10 µM (UACC-257; [5]): 12%
- inhibition at 10 µM (786-0; [5]): 14.6%
- inhibition at 10 µM (CAKI-1; [5]): 28.1%
- inhibition at 10 µM (MDA-MB-231/ATCC; [5]): 21%
- inhibition at 10 µM (OVCAR-3; [5]): 24.4%
